Tests used:
N-type Ca^2+ channel = biological target: T1, N-type Ca^2+ channel (Rattus norvegicus, UniProt Q02294); test: N-type Ca2+ channel binding (antagonist radioligand); settings: rat cerebral cortex, read-out: % Inhibition of Control Specific Binding, N-type Ca2+
T1 construct: Rat cerebral cortex; tissue Eurofins; host or cells: rat cerebral cortex
Experimental: (§1) Binding/functional studies were carried out commercially in Eurofins Laboratories (Poitiers, France) and Eurofins Panlabs Discovery Services Taiwan, Ltd. (New Taipei City, Taiwan) using testing procedures that were reported previously (for details see Table S2).
(§2) Table S2. Radioligand binding and functional assays. […]
N-type Ca2+ (antagonist radioligand) […]
(§3) TRPV1 (VR1) (h) (antagonist effect) […]
(§4) Assays were performed commercially in Eurofins Laboratories (Poitiers, France) or Eurofins Panlabs Discovery
(§5) Services Taiwan, Ltd. (New Taipei City, Taiwan). […]

NMDA receptor = test: NMDA binding (antagonist radioligand); settings: 100 µM; rat cerebral cortex
Experimental: as §1, §2
NMDA (antagonist radioligand) […]
as §3, §4, §5

GABAA ion channel = GABAA ion channel [3H]GABA binding (agonist radioligand); settings: 100 µM; rat cerebral cortex
Experimental: as §1, §2
GABAA ion channel [3H]GABA (agonist radioligand) […]
as §3, §4, §5

[1] = Neurotoxicity, SH-SY5Y viability (MTS); type: cell-based; settings: human, SH-SY5Y neuroblastoma cells, 10 and 50 µM, read-out: SH-SY5Y cell viability, % of the control
Experimental: Moreover, the dose-dependent increase in the cells viability was found during the repeated experiment in lower concentrations (Figure 8B). […] Thus, the observed influence of this chemical group for neuronal cells is worth further detailed exploration.
Figure 8 The effect of 53 and the cytostatic drug doxorubicin (DX) on neuroblastoma SH-SY5Y cell line viability after 72 h of incubation at 37 °C, 5% CO2 in the concentration range 1–100 µM (A) and 0.001–1 µM (B). The data were analyzed with one-way ANOVA, followed by Bonferroni’s Comparison Test (Graph Pad Prism 8.0.1 software, San Diego, CA, USA)): *** p < 0.001, **** p < 0.0001 vs. negative control (DMSO 1% in growth media).

hERG = biological target: T2, hERG (Homo sapiens, UniProt Q12809); test: Potassium channel (hERG) binding; settings: human recombinant HEK-293 cells expressing hERG, human recombinant HEK-293 cell, read-out: % Inhibition of Control Specific Binding, hERG
T2 construct: Eurofins
Experimental: as §1, §2
Potassium channel (hERG)
as §3, §4, §5

[2] = tested on: scPTZ-induced seizures in mice; test: Subcutaneous pentylenetetrazole (scPTZ) seizure test; type: in vivo; settings: 100 mg/kg i.p., 0.5 h; for protection in scPTZ screening: four mice
In short: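 Adult male Albino Swiss mice (22-26 g) received compounds suspended in 1% aqueous Tween 80, single i.p. injection at 10 mL/kg. ED50 from 3–4 dose groups of eight mice; protective index computed as TD50 (chimney or rotarod) divided by ED50.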

mice = test: Capsaicin-induced hypothermia model / core body temperature; type: in vivo; settings: i.p. 15 min before capsaicin 5 mg/kg; compound 60 50 mg/kg, BCTC 20 mg/kg
Experimental: Capsaicin was dissolved in 1% DMSO and administered at a dose of 5 mg/kg at a time point 0 min. Compound 60 and BCTC (positive control) were suspended in 1% Tween 80 and administered 15 min before capsaicin (at time point -15 min). All compounds were injected i.p. at a constant volume of 10 mL/kg. Control animals received the respective vehicles (1% DMSO or 1% Tween 80). Changes in the rectal temperature were measured using an electronic thermometer (ThermoWorks, Alpine, UT, USA) by inserting the rectal probe to a depth of ~2 cm into the rectum of the mouse. The measurements were taken at −15, 0, 15, 30, 60, 90, 120, and 180 min. The differences in the rectal temperature from baseline (time -15 min for groups receiving compound 60 and BCTC in combination with vehicle or time 0 min for groups receiving vehicle and capsaicin or compound 60 and BCTC in combination with capsaicin) to the respective time point ΔT (°C) were then calculated and analyzed. The results are shown in Figure 4 (see Section 3 Results and Discussion).
Figure 4 Effects of compound 60 and BCTC alone (A) or in combination with capsaicin (B) on the core body temperature in mice. Capsaicin (CPS) was injected at 0 min, as indicated by the arrow. Compound 60 or BCTC were administered 15 min prior to CPS injection. The temperature was measured at −15, 0, 15, 30, 60, 90, 120, and 180 min. Since body temperature returned to control values 60 min after CPS injection, subsequent measurements are not shown. Control animals received vehicles (1% DMSO or 1% Tween 80). All the compounds were administered i.p. Each experimental group consisted of seven to eight animals. The data are presented as the mean differences (ΔT) in rectal temperature from baseline (time −15 for A and time 0 for B) to the respective time point. The data were analyzed with one-way ANOVA followed by Tukey’s post hoc test. ** p < 0.01, *** p < 0.001, **** p < 0.0001 vs. the control group; ^#### p < 0.0001 vs. the CPS-treated group.

T1 sequence (Q02294 whole entry): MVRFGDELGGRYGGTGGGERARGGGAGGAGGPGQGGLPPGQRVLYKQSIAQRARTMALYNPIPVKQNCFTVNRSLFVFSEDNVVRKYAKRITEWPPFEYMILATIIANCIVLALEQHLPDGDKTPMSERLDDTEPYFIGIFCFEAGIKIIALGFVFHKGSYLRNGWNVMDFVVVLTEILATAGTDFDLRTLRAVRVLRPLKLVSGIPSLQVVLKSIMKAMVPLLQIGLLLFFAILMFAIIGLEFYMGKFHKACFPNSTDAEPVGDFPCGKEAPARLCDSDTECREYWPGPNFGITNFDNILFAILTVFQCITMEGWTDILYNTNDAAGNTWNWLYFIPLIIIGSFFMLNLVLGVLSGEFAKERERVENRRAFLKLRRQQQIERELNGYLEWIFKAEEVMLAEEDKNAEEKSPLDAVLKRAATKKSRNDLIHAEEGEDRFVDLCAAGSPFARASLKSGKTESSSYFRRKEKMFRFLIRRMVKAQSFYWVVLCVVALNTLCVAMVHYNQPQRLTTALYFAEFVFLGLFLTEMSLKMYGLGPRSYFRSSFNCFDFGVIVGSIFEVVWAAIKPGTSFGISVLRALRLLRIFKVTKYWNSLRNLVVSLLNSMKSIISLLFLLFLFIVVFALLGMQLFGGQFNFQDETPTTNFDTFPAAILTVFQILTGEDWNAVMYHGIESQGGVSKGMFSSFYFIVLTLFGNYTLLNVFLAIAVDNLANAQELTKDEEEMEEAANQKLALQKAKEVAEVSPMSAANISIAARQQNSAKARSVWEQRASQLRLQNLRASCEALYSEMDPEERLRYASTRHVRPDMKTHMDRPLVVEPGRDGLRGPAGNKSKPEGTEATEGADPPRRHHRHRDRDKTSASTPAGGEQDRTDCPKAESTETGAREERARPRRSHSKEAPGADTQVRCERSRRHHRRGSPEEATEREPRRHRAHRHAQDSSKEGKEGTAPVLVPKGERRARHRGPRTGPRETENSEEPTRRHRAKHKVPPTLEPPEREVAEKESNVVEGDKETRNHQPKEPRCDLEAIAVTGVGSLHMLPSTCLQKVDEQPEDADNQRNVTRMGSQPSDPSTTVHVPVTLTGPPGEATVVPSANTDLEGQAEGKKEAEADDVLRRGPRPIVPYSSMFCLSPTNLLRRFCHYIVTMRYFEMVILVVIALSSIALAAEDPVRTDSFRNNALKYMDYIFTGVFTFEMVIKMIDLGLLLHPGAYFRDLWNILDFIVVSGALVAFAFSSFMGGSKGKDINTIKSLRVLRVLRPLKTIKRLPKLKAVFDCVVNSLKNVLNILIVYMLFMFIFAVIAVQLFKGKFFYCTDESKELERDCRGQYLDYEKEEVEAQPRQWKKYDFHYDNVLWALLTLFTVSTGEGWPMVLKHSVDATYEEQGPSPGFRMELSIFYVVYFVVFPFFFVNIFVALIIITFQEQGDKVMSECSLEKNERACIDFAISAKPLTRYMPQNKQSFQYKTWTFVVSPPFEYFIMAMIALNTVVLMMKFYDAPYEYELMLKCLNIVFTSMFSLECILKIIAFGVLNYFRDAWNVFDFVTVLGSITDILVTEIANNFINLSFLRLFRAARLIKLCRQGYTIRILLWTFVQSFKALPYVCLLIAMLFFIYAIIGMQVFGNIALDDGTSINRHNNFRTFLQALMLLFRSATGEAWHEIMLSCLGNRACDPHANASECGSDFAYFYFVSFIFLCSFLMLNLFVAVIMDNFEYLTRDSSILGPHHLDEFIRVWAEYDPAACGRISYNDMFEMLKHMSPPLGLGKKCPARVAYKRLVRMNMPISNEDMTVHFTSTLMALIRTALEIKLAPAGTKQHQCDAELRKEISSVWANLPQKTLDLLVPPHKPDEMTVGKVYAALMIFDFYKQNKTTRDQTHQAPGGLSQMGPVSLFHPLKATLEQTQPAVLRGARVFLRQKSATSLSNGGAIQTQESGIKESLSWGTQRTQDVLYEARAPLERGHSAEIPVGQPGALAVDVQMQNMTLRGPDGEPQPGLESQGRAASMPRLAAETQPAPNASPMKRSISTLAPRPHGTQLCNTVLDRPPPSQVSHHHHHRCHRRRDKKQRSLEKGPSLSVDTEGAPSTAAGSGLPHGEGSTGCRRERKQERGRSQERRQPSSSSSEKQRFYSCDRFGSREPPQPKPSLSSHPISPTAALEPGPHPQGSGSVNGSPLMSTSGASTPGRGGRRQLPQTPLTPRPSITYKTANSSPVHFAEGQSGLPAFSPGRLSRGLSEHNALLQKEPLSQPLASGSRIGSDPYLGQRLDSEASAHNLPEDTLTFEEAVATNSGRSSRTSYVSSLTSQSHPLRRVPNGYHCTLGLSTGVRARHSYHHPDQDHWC
T1 sequence (P54287 whole entry partner): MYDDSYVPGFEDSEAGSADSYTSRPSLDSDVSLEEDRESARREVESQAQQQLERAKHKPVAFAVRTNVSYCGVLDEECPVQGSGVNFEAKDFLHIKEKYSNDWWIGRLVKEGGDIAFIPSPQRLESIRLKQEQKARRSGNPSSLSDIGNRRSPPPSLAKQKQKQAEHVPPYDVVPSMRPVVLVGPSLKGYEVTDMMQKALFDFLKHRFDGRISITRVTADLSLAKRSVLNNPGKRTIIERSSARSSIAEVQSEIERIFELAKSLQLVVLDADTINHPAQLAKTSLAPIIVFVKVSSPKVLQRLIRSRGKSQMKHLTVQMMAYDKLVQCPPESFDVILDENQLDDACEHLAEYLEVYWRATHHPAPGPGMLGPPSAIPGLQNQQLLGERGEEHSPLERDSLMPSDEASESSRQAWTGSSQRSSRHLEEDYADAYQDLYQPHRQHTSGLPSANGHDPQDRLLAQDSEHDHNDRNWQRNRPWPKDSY
T1 sequence (P54290 25-944 partner limits assumed): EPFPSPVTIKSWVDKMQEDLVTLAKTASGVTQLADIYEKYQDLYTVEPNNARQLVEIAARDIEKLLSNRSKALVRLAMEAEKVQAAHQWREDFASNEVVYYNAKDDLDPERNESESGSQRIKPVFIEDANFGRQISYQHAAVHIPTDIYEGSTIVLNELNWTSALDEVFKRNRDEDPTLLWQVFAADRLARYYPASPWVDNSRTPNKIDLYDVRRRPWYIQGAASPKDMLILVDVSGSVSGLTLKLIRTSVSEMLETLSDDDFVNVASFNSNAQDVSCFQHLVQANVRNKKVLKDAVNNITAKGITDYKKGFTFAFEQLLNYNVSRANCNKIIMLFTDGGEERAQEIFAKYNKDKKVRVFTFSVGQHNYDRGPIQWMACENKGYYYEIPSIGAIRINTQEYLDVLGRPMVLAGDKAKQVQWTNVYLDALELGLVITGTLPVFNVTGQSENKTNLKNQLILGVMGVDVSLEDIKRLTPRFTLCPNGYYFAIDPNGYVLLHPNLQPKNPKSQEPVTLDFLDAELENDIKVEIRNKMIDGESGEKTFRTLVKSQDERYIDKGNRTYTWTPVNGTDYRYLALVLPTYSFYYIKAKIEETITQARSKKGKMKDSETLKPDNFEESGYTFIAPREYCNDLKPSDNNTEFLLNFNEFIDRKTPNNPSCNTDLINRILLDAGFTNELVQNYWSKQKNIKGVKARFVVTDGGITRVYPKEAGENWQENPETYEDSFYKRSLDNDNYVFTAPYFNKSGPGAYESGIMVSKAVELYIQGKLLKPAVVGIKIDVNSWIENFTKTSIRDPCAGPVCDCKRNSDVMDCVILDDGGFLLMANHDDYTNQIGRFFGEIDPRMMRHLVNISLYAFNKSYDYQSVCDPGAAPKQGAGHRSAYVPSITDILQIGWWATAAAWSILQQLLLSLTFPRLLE
T1 sequence (P54290 945-1091 partner limits assumed): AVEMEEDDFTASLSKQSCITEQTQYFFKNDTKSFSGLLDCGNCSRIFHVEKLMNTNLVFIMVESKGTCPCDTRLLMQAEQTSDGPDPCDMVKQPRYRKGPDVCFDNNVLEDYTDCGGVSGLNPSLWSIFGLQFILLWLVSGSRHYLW
T2 sequence (Q12809 whole entry): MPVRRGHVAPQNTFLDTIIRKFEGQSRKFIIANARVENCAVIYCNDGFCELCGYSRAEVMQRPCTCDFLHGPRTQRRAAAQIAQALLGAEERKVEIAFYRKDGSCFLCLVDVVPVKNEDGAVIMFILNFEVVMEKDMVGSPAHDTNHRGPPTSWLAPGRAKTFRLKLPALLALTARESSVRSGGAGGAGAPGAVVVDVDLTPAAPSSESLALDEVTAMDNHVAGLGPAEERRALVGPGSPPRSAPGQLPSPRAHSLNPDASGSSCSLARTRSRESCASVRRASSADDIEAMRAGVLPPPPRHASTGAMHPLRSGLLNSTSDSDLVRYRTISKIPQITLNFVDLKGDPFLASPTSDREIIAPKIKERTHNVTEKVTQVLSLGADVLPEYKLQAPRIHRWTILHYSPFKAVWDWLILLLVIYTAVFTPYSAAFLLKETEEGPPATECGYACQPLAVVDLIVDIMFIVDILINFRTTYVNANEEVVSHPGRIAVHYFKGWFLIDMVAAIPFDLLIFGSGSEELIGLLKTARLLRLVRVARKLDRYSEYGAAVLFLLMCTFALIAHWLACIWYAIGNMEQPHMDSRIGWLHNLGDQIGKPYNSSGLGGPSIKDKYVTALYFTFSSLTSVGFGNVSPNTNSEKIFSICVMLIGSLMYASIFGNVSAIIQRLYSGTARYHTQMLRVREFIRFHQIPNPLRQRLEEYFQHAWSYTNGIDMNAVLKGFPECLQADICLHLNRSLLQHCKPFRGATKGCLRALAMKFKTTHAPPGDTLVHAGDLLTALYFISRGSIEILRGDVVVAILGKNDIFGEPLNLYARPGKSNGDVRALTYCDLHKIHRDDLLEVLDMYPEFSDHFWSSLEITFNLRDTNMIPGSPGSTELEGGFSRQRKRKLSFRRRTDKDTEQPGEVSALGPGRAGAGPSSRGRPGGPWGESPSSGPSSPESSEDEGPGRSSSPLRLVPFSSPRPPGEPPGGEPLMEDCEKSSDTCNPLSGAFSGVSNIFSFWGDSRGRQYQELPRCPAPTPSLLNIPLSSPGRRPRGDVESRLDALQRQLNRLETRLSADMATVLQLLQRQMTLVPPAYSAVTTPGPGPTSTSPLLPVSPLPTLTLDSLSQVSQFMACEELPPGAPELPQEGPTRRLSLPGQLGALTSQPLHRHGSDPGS

| SMILES | inhibition at 100 µM (N-type Ca^2+ channel) [%] | % Inhibition of Control Specific Binding, NMDA (NMDA receptor) | % Inhibition of Control Specific Binding, GABAA ion channel (GABAA ion channel) | viability at 72 h [1] [%] | inhibition at 100 µM (hERG) [%] | scPTZ screening: number of mice protected/number of mice tested [2] | protection in scPTZ screening [2] [%] | effect on capsaicin-induced hypothermia (co-administration) (mice) |
| --- | --- | --- | --- | --- | --- | --- | --- | --- |
| CC(=O)NC(C(=O)N1CCN(c2cccc(C(F)(F)F)c2)CC1)c1ccccc1 (stereo not shown) [Compound 53, N-(2-oxo-1-phenyl-2-(4-(3-(trifluoromethyl)phenyl)piperazin-1-yl)ethyl)acetamide] | 1.5 | 9.0 (100) % | −1.1 (100) % | ≤ 140 | 24 | 1/4 | 25 | – |
| CC(=O)NC(C(=O)N1CCN(c2cccc(OC(F)(F)F)c2)CC1)c1ccccc1 (stereo not shown) [Compound 60, N-(2-oxo-1-phenyl-2-(4-(3-(trifluoromethoxy)phenyl)piperazin-1-yl)ethyl)acetamide] | – | – | – | – | – | 1/4 | 25 | did not affect the capsaicin-induced hypothermia |

From article PMC9221546, “New Phenylglycinamide Derivatives with Hybrid Structure as Candidates for New Broad-Spectrum Anticonvulsants” (Cells, 2022)
